Measurements taken from patent US20220251134A1, “2,4,7-SUBSTITUTED-7-DEAZA-2'-DEOXY-2'-FLUOROARABINOSYL NUCLEOSIDE AND NUCLEOTIDE PRO-DRUGS AND USES THEREOF” (Southern Research Institute, priority 2019, published 2022).
Like-named read-outs stand apart in the source and are kept apart here.

Legend:
[1] = Evaluation of cell viability (MTS) in HepG2 2.2.15 cells; format: cell-based, human; details: human
Procedure: (§1) The HepG2 2.2.15 cell line is a stable human hepatoblastoma cell line that contains two copies of the HBV wild-type strain ayw1 genome and constitutively produces high levels of HBV. Cells were sub-cultured twice a week in Dulbecco's Modified Eagle's Medium (DMEM) supplemented with 10% FBS, 380 μg/mL G418, 2.0 mM L-Glutamine, 100 units/mL Penicillin, and 100 μg/mL Streptomycin. Total cell number and percent viability determinations were performed using a hemacytometer and trypan blue dye exclusion prior to each experiment set-up. Cell viability was always greater than 95% for experiment set-ups.
(§2) At experiment conclusion, MTS reagent (CellTiter®96 Reagent, Promega) reagent was added to culture wells (96 well microtiter plates) and permitted to incubate with cells for 2-4 hours at 37° C., 5% CO2. Each cell culture well was measured for MTS reagent reduction (color change, 490/650 nm) using a SpectraMax i3 plate reader (Molecular Devices).

[2] = tested on: HBV in HepG2 2.2.15 cells; experiment: HepG2 2.2.15 cell-based HBV replication assay (HBV virus yield, extracellular HBV DNA by real-time PCR); parameters: species or system HBV wild-type strain ayw1; details: for EC50 / EC90: Hepatitis B virus
Procedure: as §1, with “set-up.” for “set-up. Cell viability was always greater than 95% for experiment set-ups.”
The primary anti-HBV assay was performed as previously described (Korba and Milman (1991) Antiviral Res. 15: 217-228; Korba and Gerin (1992) Antiviral Res. 19: 55-70) with modifications to use real-time PCR (TaqMan-based) to measure extracellular HBV DNA virion-associated released from HepG2 2.2.15 cells. Antiviral compounds blocking any late step of viral replication such as transcription, translation, pre-genome encapsidation, reverse transcription, particle assembly and release can be identified and characterized using this cell line. Briefly, HepG2 2.2.15 cells were seeded in 96-well microtiter plates at 1.5×10^4 cells/well in Dulbecco's Modified Eagle's Medium supplemented with 2% FBS, 2.0 mM L-Glutamine, 100 units/mL Penicillin, and 100 μg/mL Streptomycin. […] Three days post treatment with test article (DPV), cell culture medium was replaced with fresh medium containing the appropriately diluted test compounds. Six days following the initial administration of the test compounds, the cell culture supernatant was collected, treated with pronase and then used in a real-time TaqMan-based PCR assay. The PCR-amplified HBV DNA was detected by measuring fluorescent signal resulting from the exonucleolytic degradation of a quenched fluorescent probe molecule that hybridizes to the amplified HBV DNA.

HSV-1 Strain HF = experiment: Antiviral activity against HSV-1 Strain HF in Vero cells; format: cell-based
[3] = Cytotoxicity (TC50) in Vero cells; format: cell-based; details: African green monkey, Table 2
HepG2 2.2.15 cells = experiment: Evaluation of cell viability (MTS) in HepG2 2.2.15 cells; format: cell-based, human; details: Table 3; HBV virus yield assay
Procedure: as §1, §2

[4] = HepG2 2.2.15, Table 1, HBV in HepG2 2.2.15 cells, read-out: EC50
[5] = HepG2 2.2.15, Table 3, HBV virus yield assay, read-out: EC50
[6] = Table 1, HBV in HepG2 2.2.15 cells, read-out: EC90
[7] = Table 1, HBV in HepG2 2.2.15 cells
[8] = HepG2 2.2.15 cells, Table 3, HBV virus yield assay
[9] = HepG2 2.2.15, Table 3, HBV virus yield assay, read-out: EC90

Question: For CC(C)OC(=O)[C@H](C)NP(=O)(OC[C@H]1O[C@@H](n2ccc3c(N)nc(Cl)nc32)[C@@H](F)[C@@H]1O)Oc1ccccc1 (mixture of isomers) [Compound 9b, isopropyl ((((2R,3R,4S,5R)-5-(4-amino-2-chloro-7H-pyrrolo[2,3-d]pyrimidin-7-yl)-4-fluoro-3-hydroxytetrahydrofuran-2-yl)methoxy)(phenoxy)phosphoryl)-L-alaninate], which CC50 ([1]; Table 3, HBV virus yield assay) is on record?
Answer: Its CC50 is > 10000 nM.

Question: What about the EC50 ([2]; HepG2 2.2.15) of the same compound?
Answer: The EC50 was 90 nM.

Question: And the EC90 ([2]; HepG2 2.2.15)?
Answer: Its EC90 is 1050 nM.

Question: Which results are given for CCOC(=O)[C@H](C)NP(=O)(OC[C@H]1O[C@@H](n2ccc3c(N)nc(Cl)nc32)[C@@H](F)[C@@H]1O)Oc1ccccc1 (mixture of isomers) [Compound 9e, ethyl ((((2R,3R,4S,5R)-5-(4-amino-2-chloro-7H-pyrrolo[2,3-d]pyrimidin-7-yl)-4-fluoro-3-hydroxytetrahydro-furan-2-yl)methoxy)-(phenoxy)phosphoryl)-L-alaninate]?
Answer: CC50 ([1]; Table 3, HBV virus yield assay): > 10000 nM; EC50 ([2]; HepG2 2.2.15): 140 nM; EC90 ([2]; HepG2 2.2.15): > 10000 nM

Question: With C[C@H](NP(=O)(OC[C@H]1O[C@@H](n2ccc3c(N)nc(Cl)nc32)C(F)C1O)Oc1ccccc1)C(=O)OCc1ccccc1 (single isomer, unassigned) [Compound 9c] as the compound, how does the CC50 ([1]; Table 3, HBV virus yield assay) read?
Answer: The CC50 was > 10000 nM.

Question: What about the EC50 ([2]; HepG2 2.2.15) of the same compound?
Answer: Its EC50 is 240 nM.

Question: And the EC90 ([2]; HepG2 2.2.15)?
Answer: Its EC90 is > 10000 nM.

Question: Which results are given for CC(C)COC(=O)[C@H](C)NP(=O)(OC[C@H]1O[C@@H](n2ccc3c(N)nc(Cl)nc32)[C@@H](F)[C@@H]1O)Oc1ccccc1 (single isomer, unassigned) [Compound 9d]?
Answer: CC50 ([1]; Table 3, HBV virus yield assay): > 10000 nM; EC50 ([2]; HepG2 2.2.15): 300 nM; EC90 ([2]; HepG2 2.2.15): > 10000 nM

Question: Which CC50 ([1]; Table 3, HBV virus yield assay) does the source give for COC(=O)[C@H](C)NP(=O)(OC[C@H]1O[C@@H](n2ccc3c(N)nc(Cl)nc32)[C@@H](F)[C@@H]1O)Oc1ccccc1 (single isomer, unassigned) [Compound 9f] here?
Answer: The CC50 was > 10000 nM.

Question: And the EC50 ([2]; HepG2 2.2.15)?
Answer: Its EC50 is 240 nM.

Question: What about the EC90 ([2]; HepG2 2.2.15) of the same compound?
Answer: Its EC90 is > 10000 nM.

Question: For Nc1nc2c(ncn2COCCO)c(=O)[nH]1 [Acyclovir, acyclovir, reference compound], which IC50 (HSV-1 Strain HF; Table 2) is on record?
Answer: Its IC50 is 11400 nM.

Question: What about the “Selectivity Index (SI50) (TC50/IC50)” value (HSV-1 Strain HF; Table 2) of the same compound?
Answer: Its value is >8.77.

Question: And the CC50 [3]?
Answer: The CC50 was > 100000 nM.

Question: With Nc1ccn([C@@H]2CS[C@H](CO)O2)c(=O)n1 [Compound 3TC, Lamivudine, reference compound] as the compound, how does the CC50 ([1]; Table 1, HepG2 2.2.15 cells) read?
Answer: Its CC50 is > 2000 nM.

Question: What about the CC50 (HepG2 2.2.15 cells) of the same compound?
Answer: Its CC50 is > 2000 nM.

Question: What about the EC50 [2, 4] of the same compound?
Answer: The EC50 was 29 nM.

Question: What about the EC50 [2, 5] of the same compound?
Answer: The EC50 was 29 nM.

Question: What about the EC90 [2, 6] of the same compound?
Answer: The EC90 was 511 nM.

Question: With Nc1nc(Cl)nc2c1ccn2[C@@H]1O[C@H](CO)[C@@H](O)[C@@H]1F [Compound 5, (2R,3R,4S,5R)-5-(4-amino-2-chloro-7H-pyrrolo[2,3-d]pyrimidin-7-yl)-4-fluoro-2-(hydroxymethyl)tetrahydrofuran-3-ol] as the compound, how does the CC50 ([1]; Table 1, HepG2 2.2.15 cells) read?
Answer: Its CC50 is > 10000 nM.

Question: And the CC50 (HepG2 2.2.15 cells)?
Answer: Its CC50 is > 10000 nM.

Question: And the IC50 (HSV-1 Strain HF; Human alphaherpesvirus 1, Table 2)?
Answer: Its IC50 is 650 nM.

Question: What about the “Selectivity Index (SI50) (TC50/IC50)” value (HSV-1 Strain HF; Table 2) of the same compound?
Answer: Its value is >15.4.

Question: And the EC50 [2, 4]?
Answer: The EC50 was 70 nM.

Question: What about the EC50 [2, 5] of the same compound?
Answer: Its EC50 is 60 nM.

Question: And the EC90 [2, 6]?
Answer: Its EC90 is 1280 nM.

Question: What about the Activity [2, 7] of the same compound?
Answer: The Activity was “Hi”.

Question: What about the “Selectivity Index (SI50) (CC50/EC50)” value [2, 7] of the same compound?
Answer: The value was >167.

Question: What about the CC50 [3] of the same compound?
Answer: The CC50 was > 10000 nM.

Question: For CCC(CC)COC(=O)[C@H](C)NP(=O)(OC[C@H]1O[C@@H](n2ccc3c(N)nc(Cl)nc32)[C@@H](F)[C@@H]1O)Oc1ccccc1 (stereo partly drawn) [Compound 9a, 2-ethylbutyl ((((2R,3R,4S,5R)-5-(4-amino-2-chloro-7H-pyrrolo[2,3-d]pyrimidin-7-yl)-4-fluoro-3-hydroxytetrahydrofuran-2-yl)methoxy)(phenoxy)phosphoryl)-L-alaninate], which CC50 ([1]; Table 3, HBV virus yield assay) is on record?
Answer: Its CC50 is > 10000 nM.

Question: What about the EC50 ([2]; HepG2 2.2.15) of the same compound?
Answer: Its EC50 is 160 nM.

Question: And the EC90 ([2]; HepG2 2.2.15)?
Answer: Its EC90 is 1580 nM.

Question: Which CC50 [1, 8] does the source give for CCCCCCCCCCCC(=O)Nc1nc(Cl)nc2c1ccn2[C@@H]1O[C@H](CO)[C@@H](O)[C@@H]1F [Compound 12a, N-(2-chloro-7-((2R,3S,4R,5R)-3-fluoro-4-hydroxy-5-(hydroxymethyl)tetrahydrofuran-2-yl)-7H-pyrrolo[2,3-d]pyrimidin-4-yl)dodecanamide] here?
Answer: Its CC50 is > 10000 nM.

Question: What about the EC50 [2, 5] of the same compound?
Answer: The EC50 was 80 nM.

Question: And the EC90 [2, 9]?
Answer: Its EC90 is 950 nM.

Question: For CCCCCCCC/C=C\CCCCCCCC(=O)Nc1nc(Cl)nc2c1ccn2[C@@H]1O[C@H](CO)[C@@H](O)[C@@H]1F [Compound 12b, N-(2-chloro-7-((2R,3S,4R,5R)-3-fluoro-4-hydroxy-5-(hydroxymethyl)tetrahydrofuran-2-yl)-7H-pyrrolo[2,3-d]-pyrimidin-4-yl)oleamide], which CC50 [1, 8] is on record?
Answer: Its CC50 is > 10000 nM.

Question: And the EC50 [2, 5]?
Answer: Its EC50 is 130 nM.

Question: And the EC90 [2, 9]?
Answer: Its EC90 is > 10000 nM.

Question: With CCCCCCCCCCCCCCCCCC(=O)Nc1nc(Cl)nc2c1ccn2[C@@H]1O[C@H](CO)[C@@H](O)[C@@H]1F [Compound 12c, N-(2-chloro-7-((2R,3S,4R,5R)-3-fluoro-4-hydroxy-5-(hydroxymethyl)tetrahydrofuran-2-yl)-7H-pyrrolo[2,3-d]pyrimidin-4-yl)stearamide] as the compound, how does the CC50 [1, 8] read?
Answer: The CC50 was > 10000 nM.

Question: And the EC50 [2, 5]?
Answer: The EC50 was 530 nM.

Question: And the EC90 [2, 9]?
Answer: The EC90 was > 10000 nM.

Question: What does the source list for CCCC(CCC)C(=O)Nc1nc(Cl)nc2c1ccn2[C@@H]1O[C@H](CO)[C@@H](O)[C@@H]1F [Compound 12d, N-(2-chloro-7-((2R,3S,4R,5R)-3-fluoro-4-hydroxy-5-(hydroxymethyl)tetrahydrofuran-2-yl)-7H-pyrrolo[2,3-d]pyrimidin-4-yl)-2-propylpentanamide]?
Answer: CC50 [1, 8]: > 10000 nM; EC50 [2, 5]: 2120 nM; EC90 [2, 9]: > 10000 nM
